Test results from patent US7183383B2, “Uses of collagen IV” (The University of Arkansas for Medical Sciences, priority 2002, dated 2007).

How the values were obtained:
[1] = 37° C.; cited from earlier work
[2] = system: collagen IV deposition in renal proximal tubular cells; assay: Newly deposited collagen IV (immunoprecipitation, autoradiography, densitometry); type: cell-based, rabbit
Protocol: Immunoprecipitation of newly synthesized and deposited collagen IV was performed using the method of Niki et al., with some modifications (34). On days 1, 4, and 6 after sublethal S-(1,2-dichlorovinyl)-L-cysteine injury, renal proximal tubular cells were metabolically labeled for 24 hours with 25 μCi/ml of [^35S]-L-methionine. Cell monolayers were washed with PBS, solubilized for 30 minutes in lysis buffer (20 mM Tris-HCl (pH 8.8), 2 mM EDTA, 0.2 mM PMSF, 10 mM N-ethylmaleimide, 1% Triton X-100, 1% sodium deoxycholic acid, 150 mM NaCl, and 1 mM EGTA) containing protease inhibitors (25 μg/ml pepstatin A, 12.5 μg/ml leupeptin, 12.5 μg/ml aprotinin), and centrifuged at 15,000×g for 10 minutes at 4° C. The resulting supernatants (soluble fraction, cell-associated collagen) were transferred to fresh tubes, snap frozen in liquid N2, and stored at −80° C. Pelleted material (insoluble fraction, ECM-associated collagen) was resuspended in pellet solubilization buffer (20 mM Tris-HCl (pH 8.8), 2 mM EDTA, 0.2 mM PMSF, 10 mM N-ethylmaleimide, 1% sodium dodecyl sulfate, and 10 mM dithiothreitol), sonicated, boiled for 5 minutes, and incubated in the presence of iodoacetamide (25 mM) for 30 minutes at 37° C. with shaking. Samples were centrifuged at 15,000×g for 10 minutes at 4° C. Supernatants were then transferred to fresh microcentrifuge tubes, snap frozen in liquid N2, and stored at −80° C. Protein concentration in cell-associated and ECM-associated fractions was determined using a Coomassie protein microassay (Pierce, Rockford, Ill.) with BSA as the standard. Sample aliquots equaling 0.5 mg of total protein were diluted 3-fold in immunoprecipitation buffer (20 mM Tris-HCl (pH 8.8), 2 mM EDTA, 0.2 mM PMSF, 10 mM N-ethylmaleimide) and precleared with 20 μl (50% slurry) of Protein G-agarose beads for 2 hours. Samples were then incubated overnight with 0.05 mg of an anti-collagen IV monoclonal antibody (clone M3F7) at 4° C. with vigorous shaking. Samples were incubated for 2 hours at 4° C. with shaking in the presence of goat anti-mouse IgG at a concentration in two-fold excess of that of the primary antibody. Immune complexes were precipitated for 2 hours at 4° C. with shaking using 40 μl (50% slurry) of Protein G-agarose beads.
To collect the collagen IV immune complexes, samples were centrifuged at 15,000×g for 1 minute at 4° C. […]
(§1) Radiolabeled collagen IV was separated by SDS-PAGE and visualized by autoradiography (22). […] After film development, densitometry of the resulting 206 kDa bands was calculated using NIH Image software.

[3] = system: prolyl hydroxylase activity in renal proximal tubular cells; assay: Proline hydroxylation in newly synthesized collagen IV (dual labeling); type: cell-based, rabbit; details: day 1 after DCVC
Excerpt: Proline hydroxylation in collagen molecules occurs at the 4-trans position. Therefore, the extent of proline hydroxylation can be estimated by the loss of hydrogen from the 4-trans position of proline in the hydroxylation reaction. A previously described dual-labeling technique for the determination of proline hydroxylation was modified using [^14C]-L-proline and 4-[^3H]-L-proline incorporation into collagen IV and measuring the ratio of [^3H]:[^14C] in collagen IV molecules (5). A greater extent of proline hydroxylation at the 4-trans position of proline will result in a decrease in the ratio of [^3H]:[^14C] in newly synthesized collagen molecules due to the loss of [^3H]. Renal proximal tubular cells were dual-labeled for 24 hours with [^14C]-L-proline ([…]) and 4-[^3H]-L-proline (62.5 μCi/ml) immediately after S-(1,2-dichlorovinyl)-L-cysteine exposure. Cell-associated and deposited proteins were harvested, and collagen IV was immunoprecipitated as described above. Immunoprecipitated collagen IV was visualized by SDS-PAGE as described above, the 206 kDa bands in the destained gels were excised, and the protein was extracted with 90% hyamine hydroxide overnight at 37° C. [^14C]-Proline and 4-[^3H]-proline in collagen IV was determined using liquid scintillation spectrometry, and the extent of proline hydroxylation was calculated as the ratio of [^3H]:[^14C].

[4] = system: collagen IV synthesis in renal proximal tubular cells; assay: Newly synthesized collagen IV (immunoprecipitation, autoradiography, densitometry); type: cell-based, rabbit
Protocol: Immunoprecipitation of newly synthesized and deposited collagen IV was performed using the method of Niki et al., with some modifications (34). On days 1, 4, and 6 after sublethal S-(1,2-dichlorovinyl)-L-cysteine injury, renal proximal tubular cells were metabolically labeled for 24 hours with 25 μCi/ml of [^35S]-L-methionine. Cell monolayers were washed with PBS, solubilized for 30 minutes in lysis buffer (20 mM Tris-HCl (pH 8.8), 2 mM EDTA, 0.2 mM PMSF, 10 mM N-ethylmaleimide, 1% Triton X-100, 1% sodium deoxycholic acid, 150 mM NaCl, and 1 mM EGTA) containing protease inhibitors (25 μg/ml pepstatin A, 12.5 μg/ml leupeptin, 12.5 μg/ml aprotinin), and centrifuged at 15,000×g for 10 minutes at 4° C. The resulting supernatants (soluble fraction, cell-associated collagen) were transferred to fresh tubes, snap frozen in liquid N2, and stored at −80° C. […] Protein concentration in cell-associated and ECM-associated fractions was determined using a Coomassie protein microassay (Pierce, Rockford, Ill.) with BSA as the standard. […]
as §1

Compound	stable in culture media [1] [days]	collagen IV deposition in DCVC-injured RPTC ([2]; 500 μM AscP, throughout the experiment)	collagen IV deposition by uninjured RPTC, pharmacological vs physiological AscP ([2]; uninjured RPTC, not statistically significant)	ratio of 4-[^3H]-L-proline:[^14C]-L-proline greater than controls ([3]; 500 μM AscP)	collagen IV synthesis, 500 μM compared to 50 μM AscP ([4]; day 1, uninjured RPTC)	decrease in collagen IV deposition compared to controls ([2]; day 4 after DCVC, physiological AscP, not statistically significant)	collagen IV deposition ([2]; one day after DCVC, 50 μM AscP)	ratio of 4-[^3H]-L-proline:[^14C]-L-proline greater than controls ([3]; 50 μM AscP, higher ratio = decreased proline hydroxylation)	increase in collagen IV synthesis ([4]; one day after DCVC, both 50 μM and 500 μM AscP) [fold]
O=C1O[C@H]([C@@H](O)CO)C(O)=C1OP(=O)(O)O [L-ascorbic acid-2-phosphate, L-Ascorbic acid-2-phosphate]	≥ 7	maintained collagen IV deposition at levels equal to that of controls	numerical increase	approximately 45%	decreased				
N[C@@H](CSC(Cl)=CCl)C(=O)O [S-(1,2-dichlorovinyl)-L-cysteine]						approximately 50%	significantly inhibited	approximately 80%	1.8
